This test deals with recombinant human SAE enzyme (Homo sapiens (Human), UniProt Q9UBT2). Put plainly: SAE HTRF enzyme assay. The settings on record: for Percent Inhibition: Concentration 0.111 μM; for IC50: class symbols A/B/C. The class given is biochemical. An outline of the steps: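 This HTRF format monitors Sumo-Flag–Ubc9-GST thioester formation catalysed by 0.11 nM human SAE with 0.5 μM ATP over 105 min at 24° C. Inhibition is expressed at a single concentration or as IC50.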
On the technique in general: In TR-FRET formats the signal depends on donor and acceptor labels being close together.

Each structure is given as a SMILES string. Some results are limits rather than exact numbers.

recombinant human SAE enzyme, sequence (Q9UBT2 whole entry): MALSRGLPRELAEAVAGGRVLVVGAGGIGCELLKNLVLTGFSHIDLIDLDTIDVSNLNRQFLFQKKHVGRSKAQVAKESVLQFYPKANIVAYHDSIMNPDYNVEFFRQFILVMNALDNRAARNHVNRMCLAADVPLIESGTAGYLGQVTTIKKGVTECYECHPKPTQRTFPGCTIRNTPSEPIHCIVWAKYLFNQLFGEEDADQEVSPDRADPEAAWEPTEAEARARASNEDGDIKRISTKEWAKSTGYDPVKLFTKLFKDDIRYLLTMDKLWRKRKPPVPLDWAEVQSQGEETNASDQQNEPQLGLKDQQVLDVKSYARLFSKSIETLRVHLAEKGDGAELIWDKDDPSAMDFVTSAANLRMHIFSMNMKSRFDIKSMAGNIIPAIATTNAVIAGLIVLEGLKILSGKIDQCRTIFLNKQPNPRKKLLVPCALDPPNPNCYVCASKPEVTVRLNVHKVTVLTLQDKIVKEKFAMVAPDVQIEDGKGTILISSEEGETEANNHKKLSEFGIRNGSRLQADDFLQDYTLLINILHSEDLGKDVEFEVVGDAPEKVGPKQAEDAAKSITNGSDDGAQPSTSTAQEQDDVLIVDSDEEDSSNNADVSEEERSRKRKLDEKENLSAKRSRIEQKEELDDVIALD
recombinant human SAE enzyme, sequence (Q9UBE0 whole entry partner): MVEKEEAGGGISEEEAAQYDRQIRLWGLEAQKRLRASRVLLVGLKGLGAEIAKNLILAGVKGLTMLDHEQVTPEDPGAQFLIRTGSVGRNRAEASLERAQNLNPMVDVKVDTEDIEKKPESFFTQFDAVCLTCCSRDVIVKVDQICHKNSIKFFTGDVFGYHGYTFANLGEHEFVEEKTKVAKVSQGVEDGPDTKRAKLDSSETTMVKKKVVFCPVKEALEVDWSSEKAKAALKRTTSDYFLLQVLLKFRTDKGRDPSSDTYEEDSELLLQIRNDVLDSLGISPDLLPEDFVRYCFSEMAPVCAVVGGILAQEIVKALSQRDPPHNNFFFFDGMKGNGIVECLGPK

Usually IC50 stands for the concentration needed to halve the response being measured. For the molecule `Cc1sc(C(=O)c2cncnc2N[C@@H]2C[C@H](COS(N)(=O)=O)[C@@H](O)C2)cc1[C@@H]1OCCc2ccsc21` (single isomer, unassigned) [I-269a, [(1R,2S,4R)-4-{[5-({4-[(7S)-4,7-dihydro-5H-thieno[2,3-c]pyran-7-yl]-5-methyl-2-thienyl}carbonyl)pyrimidin-4-yl]amino}-2-hydroxycyclopentyl]methyl sulfamate or [(1R,2S,4R)-4-{[5-({4-[(7R)-4,7-dihydro-5H-thieno[2,3-c]pyran-7-yl]-5-methyl-2-thienyl}carbonyl)pyrimidin-4-yl]amino}-2-hydroxycyclopentyl]methyl sulfamate], the “Percent Inhibition” value is recorded as 101 and the IC50 was below 10 nM.
The like results for `Cc1sc(C(=O)c2cncnc2N[C@@H]2C[C@H](COS(N)(=O)=O)[C@@H](O)C2)cc1[C@@H]1OCCc2ccsc21` (single isomer, unassigned) [I-269b, [(1R,2S,4R)-4-{[5-({4-[(7S)-4,7-dihydro-5H-thieno[2,3-c]pyran-7-yl]-5-methyl-2-thienyl}carbonyl)pyrimidin-4-yl]amino}-2-hydroxycyclopentyl]methyl sulfamate or [(1R,2S,4R)-4-{[5-({4-[(7R)-4,7-dihydro-5H-thieno[2,3-c]pyran-7-yl]-5-methyl-2-thienyl}carbonyl)pyrimidin-4-yl]amino}-2-hydroxycyclopentyl]methyl sulfamate] were, in that order, 95 and 10 to 100 nM.
On the same counts, the results for `Cc1oc(C(=O)c2cncnc2N[C@@H]2C[C@H](COS(N)(=O)=O)[C@@H](O)C2)cc1[C@@H]1OCCc2ccc(Cl)cc21` (single isomer, unassigned) [I-270a, {(1R,2S,4R)-4-[(5-{4-[(1R)-7-chloro-3,4-dihydro-1H-isochromen-1-yl]-5-methyl-2-furoyl}pyrimidin-4-yl)amino]-2-hydroxycyclopentyl}methyl sulfamate or {(1R,2S,4R)-4-[(5-{4-[(1S)-7-chloro-3,4-dihydro-1H-isochromen-1-yl]-5-methyl-2-furoyl}pyrimidin-4-yl)amino]-2-hydroxycyclopentyl}methyl sulfamate] are 79 and 10 to 100 nM.
On the same counts, the results for `Cc1oc(C(=O)c2cncnc2N[C@@H]2C[C@H](COS(N)(=O)=O)[C@@H](O)C2)cc1[C@@H]1OCCc2ccc(Cl)cc21` (single isomer, unassigned) [I-270b, {(1R,2S,4R)-4-[(5-{4-[(1R)-7-chloro-3,4-dihydro-1H-isochromen-1-yl]-5-methyl-2-furoyl}pyrimidin-4-yl)amino]-2-hydroxycyclopentyl}methyl sulfamate or {(1R,2S,4R)-4-[(5-{4-[(1S)-7-chloro-3,4-dihydro-1H-isochromen-1-yl]-5-methyl-2-furoyl}pyrimidin-4-yl)amino]-2-hydroxycyclopentyl}methyl sulfamate] are 99 and below 10 nM.
As for `Cc1sc(C(=O)c2cncnc2N[C@@H]2C[C@H](COS(N)(=O)=O)[C@@H](O)[C@@H]2F)cc1[C@@H]1OCCc2ccccc21` (single isomer, unassigned) [I-271a, [(1R,2R,3R,4R)-4-{([5-({4-[(1R)-3,4-dihydro-1H-isochromen-1-yl]-5-methyl-2-thienyl)carbonyl)pyrimidin-4-yl]amino}-3-fluoro-2-hydroxycyclopentyl]methyl sulfamate or [(1R,2R,3R,4R)-4-{([5-({4-[(1S)-3,4-dihydro-1H-isochromen-l-yl]-5-methyl-2-thienyl}carbonyl)pyrimidin-4-yl]amino}-3-fluoro-2-hydroxycyclopentyl]methyl sulfamate], the “Percent Inhibition” value came out at 99 and the half-inhibitory concentration (IC50) was below 10 nM.
The like results for `Cc1oc(C(=O)c2cncnc2N[C@@H]2C[C@H](COS(N)(=O)=O)[C@@H](O)C2)cc1C1OCCc2ccccc21` (single isomer, unassigned) [I-272a, {(1R,2S,4R)-4-[(5-{4-[(1R)-3,4-dihydro-1H-isochromen-1-yl]-5-methyl-2-furoyl}pyrimidin-4-yl)amino]-2-hydroxycyclopentyl}methyl sulfamate or {(1R,2S,4R)-4-[(5-{4-[(1S)-3,4-dihydro-1H-isochromen-1-yl]-5-methyl-2-furoyl}pyrimidin-4-yl)amino]-2-hydroxycyclopentyl}methyl sulfamate] were, in that order, 96 and below 10 nM.
As to `Cc1oc(C(=O)c2cncnc2N[C@@H]2C[C@H](COS(N)(=O)=O)[C@@H](O)C2)cc1C1OCCc2ccccc21` (single isomer, unassigned) [I-272b, {(1R,2S,4R)-4-[(5-{4-[(1R)-3,4-dihydro-1H-isochromen-1-yl]-5-methyl-2-furoyl}pyrimidin-4-yl)amino]-2-hydroxycyclopentyl}methyl sulfamate or {(1R,2S,4R)-4-[(5-{4-[(1S)-3,4-dihydro-1H-isochromen-1-yl]-5-methyl-2-furoyl}pyrimidin-4-yl)amino]-2-hydroxycyclopentyl}methyl sulfamate], the “Percent Inhibition” value is listed as 97 and the IC50 was below 10 nM.
The like results for `NS(=O)(=O)OC[C@H]1C[C@@H](Nc2ncncc2C(=O)c2cc([C@@H]3OCCc4cc(F)c(F)cc43)cs2)C[C@@H]1O` (single isomer, unassigned) [I-273, [(1R,2S,4R)-4-{[5-({4-[(1R)-6,7-Difluoro-3,4-dihydro-1H-isochromen-1-yl]-2-thienyl}carbonyl)pyrimidin-4-yl]amino}-2-hydroxycyclopentyl]methyl sulfamate or [(1R,2S,4R)-4-{[5-({4-[(1S)-6,7-Difluoro-3,4-dihydro-1H-isochromen-1-yl]-2-thienyl}carbonyl)pyrimidin-4-yl]amino}-2-hydroxycyclopentyl]methyl sulfamate] were, in that order, 99 and below 10 nM.
On the same counts, the results for `NS(=O)(=O)OC[C@H]1C[C@@H](Nc2ncncc2C(=O)c2cc(C3NCCc4ccc(Cl)cc43)cs2)C[C@@H]1O` (single isomer, unassigned) [I-274a, [(1R,2S,4R)-4-{[5-({4-[(1R)-7-chloro-1,2,3,4-tetrahydroisoquinolin-1-yl]-2-thienyl}carbonyl)pyrimidin-4-yl]amino}-2-hydroxycyclopentyl]methyl sulfamate or [(1R,2S,4R)-4-{[5-({4-[(1S)-7-chloro-1,2,3,4-tetrahydroisoquinolin-1-yl]-2-thienyl}carbonyl)pyrimidin-4-yl]amino}-2-hydroxycyclopentyl]methyl sulfamate] are 98 and below 10 nM.
For the molecule `NS(=O)(=O)OC[C@H]1C[C@@H](Nc2ncncc2C(=O)c2cc(C3NCCc4ccc(Cl)cc43)cs2)C[C@@H]1O` (single isomer, unassigned) [I-274b, [(1R,2S,4R)-4-{[5-({4-[(1R)-7-chloro-1,2,3,4-tetrahydroisoquinolin-1-yl]-2-thienyl}carbonyl)pyrimidin-4-yl]amino}-2-hydroxycyclopentyl]methyl sulfamate or [(1R,2S,4R)-4-{[5-({4-[(1S)-7-chloro-1,2,3,4-tetrahydroisoquinolin-1-yl]-2-thienyl}carbonyl)pyrimidin-4-yl]amino}-2-hydroxycyclopentyl]methyl sulfamate], the “Percent Inhibition” value was determined as 81 and the IC50 fell in the range of 10 to 100 nM.
